Earlier results in patent US20190175566A1, “ANTI-TUMOR COCKTAIL COMPRISING AN ANTI-TUMOR AGENT SELECTIVE FOR TUMOR ACIDITY, AN ANTIOXIDANT, AND A P-GLYCOPROTEIN INHIBITOR” (ARION TECNOLOGIA BRASIL- GESTAO DE ATIVOS S/A, priority 2016, published 2019).
Read-outs that look alike come from different tables or passages of the source.

Columns and labels:
[1] = in mice, intravenous route

COc1cc2c(cc1OC)CN(CCc1ccc(NC(=O)c3cc(OC)c(OC)cc3NC(=O)c3cnc4ccccc4c3)cc1)CC2 [Tariquidar, tariquidar]
toxicity (LD50) [1]: 300 mg/kg

O=C(O)c1c2ccccc2nc2ccccc12 [9-acridine carboxylic acid]
toxicity (LD50) (route not given): 240 mg/kg | toxicity (LD50) (via intraperitoneal application (subcutaneously)): 240 mg/kg

COC1=C(OC)C(=O)C(C/C=C(\C)CC/C=C(\C)CC/C=C(\C)CC/C=C(\C)CC/C=C(\C)CC/C=C(\C)CC/C=C(\C)CC/C=C(\C)CC/C=C(\C)CCC=C(C)C)=C(C)C1=O [Co-Q10, Coenzyme Q10]
toxicity (LD50) (orally): ~20000 mg/kg
